Here are results for 18 molecules from patent US11541006B2, “Aqueous formulation for insoluble drugs” (priority 2018, dated 2023).

In brackets after ≈: the same amount, converted by molar mass. Counter-ions that a name gives are not always drawn. Some results are limits rather than exact numbers.

The term solubility denotes the dissolved amount per volume that the medium holds.

Data set [1] is described as follows: Solubility of disease-related insoluble solids in LMBW vehicle and PBS (Example 29). It is filed as physicochemical. The following applies: for solubility: thermodynamic from solid. The source says:
These solids have very low solubility in the body fluids and therefore they have a high tendency to precipitate and to form the undesirable solid deposits in vivo. […] Weigh out a fixed amount of a solid of interest, • 2. […] Mix to dissolve the solid, • 4. If the solid has completely dissolved, add more until it is no longer dissolving in the vehicle • 5.

For data set [2] the following is noted: cited from earlier work; for Solubility according to USP definition: in water.
Data set [3] can be described thus: Solubility of insoluble drugs in F96 LMBW vehicle (Example 4). Format: physicochemical. The following applies: for solubility: aqueous with cosolvent or surfactant or cyclodextrin, thermodynamic from solid.
Text: Twenty-two (22) insoluble drugs having a wide variety of chemical structures (including chemical element, small molecule, peptide and protein), properties and biological activities (including drugs, diagnostic agents and nutritional supplement agents) were selected and tested for solubility in F96 LMBW vehicle as follows: • 1. Measure out a fixed amount of F96 vehicle. • 2. Add a known amount of an insoluble drug substance. • 3. Mix to dissolve the drug substance. • 4. […] Record the maximum amount of the insoluble drug substance that the F96 LMBW vehicle could dissolve and use this value to calculate the drug's solubility in the F96 LMBW vehicle.
Data set [4] can be described thus: Solubility of insoluble drugs in 16% SBECD aqueous solution (Example 27). The note with it: for solubility: 16% SBECD aqueous solution, aqueous with cosolvent or surfactant or cyclodextrin, thermodynamic from solid; for Measured solubility in 16% SBECD: 16% sulfobutyl ether beta cyclodextrin aqueous solution.
Text: Add a known amount of an insoluble drug substance. • 3. Mix to dissolve the drug substance. • 4.

Take `O=c1[nH]c(=O)c2[nH]c([O-])nc2[nH]1.[Na+]` [Mono sodium urate]: in data set [1] (phosphate buffered saline), the “Solubility in PBS” value was under 1 µg/mL. For the same molecule, the “Measured solubility in F96 LMBW Vehicle” value in data set [1] (vehicle at pH 7) was determined as 50 µg/mL.
In the case of `CC(=O)O[C@H]1C(=O)[C@@]2(C)[C@H]([C@H](OC(=O)c3ccccc3)[C@]3(O)C[C@H](OC(=O)[C@H](O)[C@@H](NC(=O)c4ccccc4)c4ccccc4)C(C)=C1C3(C)C)[C@]1(OC(C)=O)CO[C@@H]1C[C@@H]2O` [Paclitaxel], in data set [2], the “Solubility according to USP definition” value is given as “Insoluble” and the “Reported solubility in water” value was under 0.0001 mg/mL.
In data set [3], `CC[C@@H]([C@H](C)O)n1ncn(-c2ccc(N3CCN(c4ccc(OC[C@@H]5CO[C@@](Cn6cncn6)(c6ccc(F)cc6F)C5)cc4)CC3)cc2)c1=O` [Posaconazole] came in with a solubility of 500 µg/mL (≈ 0.713 mM). Moreover, in data set [2], the “Solubility according to USP definition” value is “Insoluble” and the “Reported solubility in water” value is listed as under 0.0001 mg/mL. The concentration in solution in data set [4] (solubility) was 270 µg/mL (≈ 0.385 mM).
As to Casein, in data set [2], the “Solubility according to USP definition” value is recorded as “Very poorly” and the “Reported solubility in water” value is reported as 0.001-0.0001 mg/mL. Further, the “Measured solubility in 16% SBECD” value in data set [4] came out at 150 µg/mL.
In turn, `CC(C)c1cccc(C(C)C)c1O` [Propofol] gave a solubility in data set [3] of 50800 µg/mL (≈ 285 mM). In addition, in data set [2], the “Solubility according to USP definition” value was “Insoluble” and the “Reported solubility in water” value is given as under 0.0001 mg/mL. This molecule yielded a solubility in data set [4] of 56600 µg/mL (≈ 317 mM).
For `Cc1ccc(-c2cc(C(F)(F)F)nn2-c2ccc(S(N)(=O)=O)cc2)cc1` [Celecoxib], in data set [3], the solubility was 7300 µg/mL (≈ 19.1 mM). In data set [2], the “Solubility according to USP definition” value is reported as “Very poorly” and the “Reported solubility in water” value is listed as 0.001-0.0001 mg/mL. The solubility in data set [4] was found to be 1030 µg/mL (≈ 2.7 mM).
For the molecule `N[C@@H](Cc1ccc(O)c(O)c1)C(=O)O` [Levodopa], the solubility in data set [3] was 10000 µg/mL (≈ 50.7 mM); in data set [4], 2130 µg/mL (≈ 10.8 mM). Besides, the “Solubility according to USP definition” value in data set [2] is recorded as “Slightly soluble (100-1000)”.
With `CC[C@H]1OC(=O)[C@H](C)[C@@H](O[C@H]2C[C@@](C)(OC)[C@@H](O)[C@H](C)O2)[C@H](C)[C@@H](O[C@@H]2O[C@H](C)C[C@H](N(C)C)[C@H]2O)[C@](C)(OC)C[C@@H](C)C(=O)[C@H](C)[C@@H](O)[C@]1(C)O` [Clarithromycin], the solubility in data set [3] was determined as 9100 µg/mL (≈ 12.2 mM). Moreover, in data set [2], the “Solubility according to USP definition” value was “Practically” and the “Reported solubility in water” value was under 0.0001 mg/mL. Besides, the concentration in solution in data set [4] (solubility) came to 1710 µg/mL (≈ 2.29 mM).
With `CCC(C)n1ncn(-c2ccc(N3CCN(c4ccc(OCC5COC(Cn6cncn6)(c6ccc(Cl)cc6Cl)O5)cc4)CC3)cc2)c1=O` (stereo not drawn) [Intraconazole], the “Measured solubility in F96 LMBW Vehicle” value in data set [3] (stepwise addition until no longer dissolving) lay within 500 to 1000 µg/mL. Also, in data set [2], the “Solubility according to USP definition” value is listed as “Insoluble” and the “Reported solubility in water” value is listed as under 0.0001 mg/mL. Further, the “Measured solubility in 16% SBECD” value in data set [4] amounted to 170 µg/mL.
For the molecule `C[C@@H](O[C@H]1OCCN(Cc2n[nH]c(=O)[nH]2)[C@H]1c1ccc(F)cc1)c1cc(C(F)(F)F)cc(C(F)(F)F)c1` [Aprepitant], the solubility in data set [3] turned out to be 12700 µg/mL (≈ 23.8 mM); in data set [4], 150 µg/mL (≈ 0.281 mM). Besides, the “Solubility according to USP definition” value in data set [2] was “Practically”. In addition, in data set [2], the “Reported solubility in water” value is listed as under 0.0001 mg/mL.
For `CCc1c2c(nc3ccc(OC(=O)N4CCC(N5CCCCC5)CC4)cc13)-c1cc3c(c(=O)n1C2)COC(=O)[C@]3(O)CC` [Irinotecan HCl], the solubility in data set [3] was determined as 20400 µg/mL; in data set [4] it was 2120 µg/mL. Besides, the “Solubility according to USP definition” value in data set [2] was “Insoluble”. Besides, the “Reported solubility in water” value in data set [2] is listed as under 0.0001 mg/mL.
Consider `CC(=O)[C@H]1CC[C@H]2[C@@H]3CCC4=CC(=O)CC[C@]4(C)[C@H]3CC[C@]12C` [Progesterone], for which the solubility in data set [3] was found to be 12000 µg/mL (≈ 38.2 mM); in data set [4], 4060 µg/mL (≈ 12.9 mM). The “Solubility according to USP definition” value in data set [2] is listed as “Sparingly”. Moreover, the “Reported solubility in water” value in data set [2] was 0.017 mg/mL.
`C[C@@H]1[C@H](O)[C@@H](C)/C=C/C=C/C=C/C=C/C=C/C=C/C=C/[C@H](O[C@@H]2O[C@H](C)[C@@H](O)[C@H](N)[C@@H]2O)C[C@@H]2O[C@](O)(C[C@@H](O)C[C@@H](O)[C@H](O)CC[C@@H](O)C[C@@H](O)CC(=O)O[C@H]1C)C[C@H](O)[C@H]2C(=O)O` [Amphotericin]: the concentration in solution in data set [3] (solubility) was 2400 µg/mL (≈ 2.6 mM). Also, in data set [2], the “Solubility according to USP definition” value is on record as “Insoluble” and the “Reported solubility in water” value was under 0.0001 mg/mL. The solubility in data set [4] was found to be 70 µg/mL (≈ 0.0758 mM).
In turn, `CC[C@@]1(O)C(=O)OCc2c1cc1n(c2=O)Cc2cc3ccccc3nc2-1` [Camptothecin] had a solubility in data set [3] of 500 to 1000 µg/mL (≈ 1.44 to 2.87 mM). In addition, in data set [2], the “Solubility according to USP definition” value was “Insoluble” and the “Reported solubility in water” value was under 0.0001 mg/mL. The molecule further yielded a solubility in data set [4] of 60 µg/mL (≈ 0.172 mM).
As for `Oc1ccc(C=Cc2cc(O)cc(O)c2)cc1` [Resveratrol], the solubility in data set [3] was 9000 µg/mL (≈ 39.4 mM). Besides, in data set [2], the “Solubility according to USP definition” value was “Insoluble” and the “Reported solubility in water” value is under 0.0001 mg/mL. The molecule further gave a solubility in data set [4] of 4850 µg/mL (≈ 21.2 mM).
Turning to `CC1=C(C/C=C(\C)CCC[C@H](C)CCC[C@H](C)CCCC(C)C)C(=O)c2ccccc2C1=O` [Phytonadione], the solubility in data set [3] is 28200 µg/mL (≈ 62.6 mM); in data set [4] it was 150 µg/mL (≈ 0.333 mM). Besides, the “Solubility according to USP definition” value in data set [2] was “Insoluble”. Moreover, in data set [2], the “Reported solubility in water” value is listed as under 0.0001 mg/mL.
In the case of `CC(C)CCC[C@@H](C)[C@H]1CC[C@H]2[C@@H]3CC=C4C[C@@H](O)CC[C@]4(C)[C@H]3CC[C@]12C` [Cholesterol], the solubility in data set [1] (F96 LMBW vehicle, aqueous with cosolvent or surfactant or cyclodextrin, vehicle at pH 7) was found to be 25000 µg/mL (≈ 64.7 mM); in data set [1] (phosphate buffered saline, aqueous buffer, read-out: Solubility in PBS), 50 µg/mL (≈ 0.129 mM).
For the molecule `CC(C)Cc1ccc(C(C)C(=O)O)cc1` (stereo not drawn) [Ibuprofen], the solubility in data set [3] was 53100 µg/mL (≈ 257 mM); in data set [4] it was 3580 µg/mL (≈ 17.4 mM). For the same molecule, the “Solubility according to USP definition” value in data set [2] is recorded as “Sparingly”.
